Experimental data taken from patent publication EP4043434A1, “NOVEL SULFONYLIMINES” (Karl-Franzens-Universität Graz, priority 2021, dated 2022).

How the values were obtained:
L-6 cells = assay: cells; format: cell-based, rat; conditions: for IC50: Rattus norvegicus, L6, cytotoxicity against L-6 cells, 70 h + 2 h incubation with Alamar Blue
Description: Assays were performed in 96-well microtiter plates, each well containing 100 µl of RPMI 1640 medium supplemented with 1% L-glutamine (200 mM) and 10% fetal bovine serum, and 4000 L-6 cell, a primary cell line derived from rat skeletal myoblasts (Page, C.; et al. J. Oncol. 1993, 3, 473-476; Ahmed, S. A.; Gogal, R. M.; et al. J. Immunol. Methods 1994, 170 211-224).
Serial drug dilutions of eleven 3-fold dilution steps covering a range from 100 to 0.002 µg/ml were prepared. After 70 hours of incubation the plates were inspected under an inverted microscope to assure growth of the controls and sterile conditions. 10 µl of Alamar Blue was then added to each well and the plates incubated for another 2 hours. Then the plates were read with a Spectramax Gemini XS microplate fluorometer (Molecular Devices Cooperation, USA) using an excitation wave length of 536 nm and an emission wave length of 588 nm. The IC50 values were calculated by linear regression (Huber, W.; et al. Acta Trop. 1993, 55, 257-261.) from the sigmoidal dose inhibition curves using SoftmaxPro software (Molecular Devices Cooperation, USA). Podophyllotoxin (Sigma P4405) was used as control. Table 1: Results for cytotoxicity against L-6 cells expressed as IC50 values (µM)

[1] = system: Arthrobacter aurescens DSM20116; assay: Drop plate method assay, antimicrobial activity; format: cell-based; design: key: high activity (++); Medium activity (+); no activity(-); conditions: 10 µl of 1 mg/ml in DMSO dropped on seeded agar plate, read after approximately 10-16 h
Description: (§1) A drop plate method assay (Alajlani, M.; et al. Chromatographia 2016, 79, 1527-1532.) with modification was performed to detect the antimicrobial and antifungal activity against the Gram positive bacteria Arthrobacter aurescens and the yeast strain Candida krusei. All compounds were dissolved in DMSO to a concentration of 1 mg/ml. Using sterile micropipette 10 µl of each compound was directly but gently dropped over seeded agar plate with test organism. The liquid was allowed to diffuse before the plate was inverted and incubated. The growth conditions for every strain was considered. The results were noted when a lawn of the indicator organism appeared on the plate (approximately 10-16 h). The magnitude of activity was noted as high activity (++), Medium activity (+),and no activity(-). Table 2: Antimicrobial and antifungal activities of compounds were detected over the test organisms.

Candida krusei CCMM L10 = assay: Drop plate method assay, antifungal activity; format: cell-based; design: key: high activity (++); Medium activity (+); no activity(-); conditions: 10 µl of 1 mg/ml in DMSO dropped on seeded agar plate, read after approximately 10-16 h
Description: as §1

Row | Compound | IC50 (L-6 cells) [µM] | IC50 for cytotoxicity relative to the investigated concentration (L-6 cells) [times] | magnitude of activity, Arthrobacter aurescens DSM20116 [1] | magnitude of activity, Candida krusei CCMM L10 (Candida krusei CCMM L10)
1 | CC(C)=C/C(=C\C=NS(=O)(=O)c1ccc([N+](=O)[O-])cc1)N1CCCCC1 [Example 2, (2E)-N-{5-Methyl-1-[(4-nitrophenyl)sulfonylimino]hexa-2,4-dien-3-yl}piperidin-1-ium chloride] | 206 | – | – | –
2 | CC(C)=C/C(=C\C=NS(=O)(=O)c1ccc([N+](=O)[O-])cc1)N1CCCC1.Cl [Example 3, (2E)-N-{5-Methyl-1-[(4-nitrophenyl)sulfonylimino]hexa-2,4-dien-3-yl}pyrrolidine-1-ium chloride] | 250 | 100 | ++ | +
3 | CC(C)=C/C(=C\C=NS(=O)(=O)c1ccc(Cl)cc1)N1CCCCC1 [Example 5, (2E)-4-Chloro-N-[5-methyl-3-(piperidin-1-yl)hexa-2,4-dien-1-ylidene]benzenesulfonamide] | – | – | ++ | +
4 | CC(C)=C/C(=C\C=NS(=O)(=O)c1ccccc1)N1CCCC1 [Example 6, 2(E)-N-[5-Methyl-3-(pyrrolidin-1-yl)hexa-2,4-dien-1-ylidene]benzenesulfonamide] | – | – | ++ | +
5 | CC(C)=C/C(=C\C=NS(=O)(=O)c1ccccc1)N(C)C [Example 7, (2E)-N-(3-Dimethylamino-5-methylhexa-2,4-dien-1-ylidene)benzenesulfonamide] | – | – | ++ | +
6 | CC(C)=C/C(=C\C=NS(=O)(=O)c1ccc(C)cc1)N1CCCC1 [Example 8, (2E)-4-Methyl-N-[5-methyl-3-(pyrrolidin-1-yl)hexa-2,4-dien-1-ylidene]benzenesulfonamide] | – | – | ++ | +
7 | CC(C)=C/C(=C\C=NS(C)(=O)=O)N1CCCCC1 [Example 10, (2E)-N-[5-Methyl-3-(piperidin-1-yl)hexa-2,4-dien-1-ylidene]methanesulfonamide] | – | – | ++ | +
